Results from patent US20230278972A1, “SUBSTITUTED HALOALKYL SULFONANILIDE HERBICIDES” (FMC Corporation, priority 2020, published 2023).

What was measured:
Assay type in all cases: in vivo
[1] = tested on: blackgrass (Alopecurus myosuroides); assay: Test A1 preemergence, blackgrass
In short: (§1)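 Seeds were first planted into a blend of loam soil and sand and given a preemergence directed soil spray. In parallel, pots of the same soil were sown for postemergence application once plants reached 2 to 10 cm and the one- to two-leaf stage. Both used surfactant-containing non-phytotoxic solvent formulations.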

corn (Zea mays) [2] = assay: Test A1 preemergence, corn
In short: as §1

[3] = tested on: Foxtail, Giant (giant foxtail, Setaria faberi); assay: Test A1 preemergence, Foxtail, Giant
In short: as §1

[4] = tested on: goosegrass (Eleusine indica); assay: Test A1 preemergence, goosegrass
In short: as §1

kochia (Bassia scoparia) [5] = assay: Test A1 preemergence, kochia
In short: as §1

[6] = tested on: Oat, Wild (wild oat, Avena fatua); assay: Test A1 preemergence, Oat, Wild
In short: as §1

[7] = tested on: Pigweed, Palmer (palmer amaranth, palmer pigweed, Amaranthus palmeri); assay: Test A1 preemergence, Pigweed, Palmer
In short: as §1

[8] = tested on: ragweed (common ragweed, Ambrosia artemisiifolia); assay: Test A1 preemergence, ragweed
In short: as §1

[9] = tested on: Ryegrass, Italian (Italian ryegrass, Lolium multiflorum); assay: Test A1 preemergence, Ryegrass, Italian
In short: as §1

soybean (Glycine max) [10] = assay: Test A1 preemergence, soybean
In short: as §1

[11] = tested on: wheat (Triticum aestivum); assay: Test A1 preemergence, wheat
In short: as §1

[12] = tested on: blackgrass (Alopecurus myosuroides); assay: Test A1 postemergence, blackgrass; settings: Postemergence, 0 to 100 scale (0 no effect, 100 complete control)
In short: (§2)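 Test compounds were formulated in a non-phytotoxic solvent mixture containing a surfactant. For preemergence, seeds sown in a loam soil–sand blend received a directed soil spray. For postemergence, potted plants in the same soil, 2 to 10 cm tall at the one- to two-leaf stage, were sprayed.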

corn (Zea mays) [13] = assay: Test A1 postemergence, corn; settings: Postemergence
In short: as §1

[14] = tested on: Foxtail, Giant (giant foxtail, Setaria faberi); assay: Test A1 postemergence, Foxtail, Giant; settings: for Plant response rating, Foxtail, Giant: Postemergence
In short: as §2

[15] = tested on: goosegrass (Eleusine indica); assay: Test A1 postemergence, goosegrass; settings: for Plant response rating, Goosegrass: Postemergence
In short: as §2

kochia (Bassia scoparia) [16] = assay: Test A1 postemergence, kochia; settings: for Plant response rating, Kochia: Postemergence
In short: as §2

[17] = tested on: Oat, Wild (wild oat, Avena fatua); assay: Test A1 postemergence, Oat, Wild; settings: for Plant response rating, Oat, Wild: Postemergence
In short: as §1

[18] = tested on: Pigweed, Palmer (palmer amaranth, palmer pigweed, Amaranthus palmeri); assay: Test A1 postemergence, Pigweed, Palmer; settings: for Plant response rating, Pigweed, Palmer: Postemergence
In short: as §1

[19] = tested on: ragweed (common ragweed, Ambrosia artemisiifolia); assay: Test A1 postemergence, ragweed; settings: for Plant response rating, Ragweed: Postemergence
In short: as §1

[20] = tested on: Ryegrass, Italian (Italian ryegrass, Lolium multiflorum); assay: Test A1 postemergence, Ryegrass, Italian; settings: for Plant response rating, Ryegrass, Italian: Postemergence
In short: as §2

soybean (Glycine max) [21] = assay: Test A1 postemergence, soybean; settings: for Plant response rating, Soybean: Postemergence
In short: as §2

[22] = tested on: wheat (Triticum aestivum); assay: Test A1 postemergence, wheat; settings: for Plant response rating, Wheat: Postemergence
In short: as §2

[23] = tested on: galium (catchweed bedstraw, Galium aparine); assay: Test A1 postemergence, galium; settings: for Plant response rating, Galium: Postemergence
In short: as §2

[24] = tested on: horseweed (Erigeron canadensis); assay: Test A1 postemergence, horseweed; settings: for Plant response rating, Horseweed: Postemergence
In short: as §2

[25] = tested on: barnyardgrass (Echinochloa crus-galli); assay: Test B1 flooded paddy test, barnyardgrass; settings: 250 g ai/ha, Flood, applied to paddy water, 2-leaf stage, visually evaluated after 10 to 14 days
Description: (§3) A dash (-) response means no test result.

[26] = tested on: ducksalad (Heteranthera limosa); assay: Test B1 flooded paddy test, ducksalad; settings: 250 g ai/ha, Flood, applied to paddy water, 2-leaf stage, visually evaluated after 10 to 14 days
Description: as §3

rice (Oryza sativa) = assay: Test B1 flooded paddy test, rice; settings: 250 g ai/ha, Flood, applied to paddy water, 2-leaf stage, visually evaluated after 10 to 14 days
Description: as §3

[27] = 31 g ai/ha, 0 to 100 scale (0 no effect, 100 complete control)
[28] = 125 g ai/ha, 0 to 100 scale, 0 no effect, 100 complete control
[29] = 31 g ai/ha, 0 to 100 scale (0 no effect, 100 complete control), 10 days
[30] = 31 g ai/ha, postemergence, 0 to 100 scale (0 no effect, 100 complete control)

Cc1cc(C)c(C2=NOC3OCCCC23)cc1NS(=O)(=O)C(F)(F)F (centres unmarked) [Compound 372]
20: Plant response rating, Oat, Wild [6, 28] | Plant response rating, Corn (corn (Zea mays) [13]; [29]) | Plant response rating, Barnyardgrass (0 to 100 scale, 0 is no effect, 100 is complete control) [25]
50: Plant response rating, Soybean (soybean (Glycine max) [10]; [28]) | Plant response rating, Corn (corn (Zea mays) [13]; 125 g ai/ha, 0 to 100 scale) | Plant response rating, Ryegrass, Italian ([20]; 125 g ai/ha, 0 to 100 scale)
100: Plant response rating, Foxtail, Giant [3, 28] | Plant response rating, Goosegrass [4, 28]
90: Plant response rating, Foxtail, Giant [3, 27] | Plant response rating, Goosegrass [4, 27] | Plant response rating, Pigweed, Palmer [7, 28] | Plant response rating, Ryegrass, Italian [9, 28]
0: Plant response rating, Blackgrass [1, 27] | Plant response rating, Corn (corn (Zea mays) [2]; [27]) | Plant response rating, Kochia (kochia (Bassia scoparia) [5]; [27]) | Plant response rating, Oat, Wild [6, 27] | Plant response rating, Ragweed [8, 27] | Plant response rating, Soybean (soybean (Glycine max) [10]; [27]) | Plant response rating, Blackgrass ([12]; 31 g ai/ha, 10 days) | Foxtail, Giant plant response rating [14, 30] | Goosegrass plant response rating [15, 30] | Kochia plant response rating (kochia (Bassia scoparia) [16]; [30]) | Plant response rating, Kochia (kochia (Bassia scoparia) [16]; 125 g ai/ha, 0 to 100 scale) | Oat, Wild plant response rating [17, 30] | Ryegrass, Italian plant response rating [20, 30] | Horseweed plant response rating [24, 30]
80: Plant response rating, Goosegrass ([15]; 125 g ai/ha, 0 to 100 scale) | Plant response rating, Ragweed ([19]; 125 g ai/ha, 0 to 100 scale) | Plant response rating, Galium ([23]; 125 g ai/ha, 0 to 100 scale)
65: Plant response rating, Ducksalad (0 to 100 scale, 0 is no effect, 100 is complete control) [26]
10: Plant response rating, Corn (corn (Zea mays) [2]; [28]) | Plant response rating, Wheat [11, 27] | Plant response rating, Oat, Wild ([17]; 125 g ai/ha, 0 to 100 scale) | Wheat plant response rating [22, 30] | Plant response rating, Rice (0 to 100 scale, 0 is no effect, 100 is complete control) (rice (Oryza sativa))
40: Plant response rating, Blackgrass [1, 28] | Plant response rating, Pigweed, Palmer [7, 27] | Plant response rating, Ryegrass, Italian [9, 27] | Plant response rating, Foxtail, Giant ([14]; 125 g ai/ha, 0 to 100 scale) | Plant response rating, Pigweed, Palmer ([18]; 125 g ai/ha, 0 to 100 scale) | Ragweed plant response rating [19, 30]
30: Plant response rating, Wheat [11, 28] | Plant response rating, Blackgrass ([12]; 125 g ai/ha) | Pigweed, Palmer plant response rating [18, 30] | Soybean plant response rating (soybean (Glycine max) [21]; [30])
60: Plant response rating, Soybean (soybean (Glycine max) [21]; 125 g ai/ha, 0 to 100 scale) | Galium plant response rating [23, 30]
70: Plant response rating, Kochia (kochia (Bassia scoparia) [5]; [28]) | Plant response rating, Ragweed [8, 28] | Plant response rating, Wheat ([22]; 125 g ai/ha, 0 to 100 scale)

COCC1CC(c2cc(NS(=O)(=O)C(F)(F)F)c(C)cc2C)=NO1 (centres unmarked) [Compound 319]
50: Plant response rating, Blackgrass [1, 28] | Plant response rating, Ryegrass, Italian [9, 27] | Plant response rating, Pigweed, Palmer ([18]; 125 g ai/ha, 0 to 100 scale) | Plant response rating, Ryegrass, Italian ([20]; 125 g ai/ha, 0 to 100 scale) | Plant response rating, Soybean (soybean (Glycine max) [21]; 125 g ai/ha, 0 to 100 scale)
30: Plant response rating, Blackgrass [1, 27] | Plant response rating, Soybean (soybean (Glycine max) [10]; [28]) | Plant response rating, Ragweed [19, 29] | Plant response rating, Ryegrass, Italian [20, 29] | Plant response rating, Rice (0 to 100 scale, 0 is no effect, 100 is complete control) (rice (Oryza sativa))
10: Plant response rating, Blackgrass ([12]; 125 g ai/ha) | Plant response rating, Corn (corn (Zea mays) [13]; [29]) | Plant response rating, Oat, Wild ([17]; 125 g ai/ha, 0 to 100 scale) | Plant response rating, Horseweed [24, 29]
80: Plant response rating, Pigweed, Palmer [7, 28] | Plant response rating, Wheat [11, 27] | Plant response rating, Corn (corn (Zea mays) [13]; 125 g ai/ha, 0 to 100 scale) | Plant response rating, Kochia (kochia (Bassia scoparia) [16]; 125 g ai/ha, 0 to 100 scale)
40: Plant response rating, Corn (corn (Zea mays) [2]; [27]) | Plant response rating, Kochia (kochia (Bassia scoparia) [5]; [28]) | Plant response rating, Foxtail, Giant [14, 29] | Plant response rating, Kochia (kochia (Bassia scoparia) [16]; [29]) | Plant response rating, Galium [23, 29] | Plant response rating, Horseweed ([24]; 125 g ai/ha, 0 to 100 scale)
85: Plant response rating, Ducksalad (0 to 100 scale, 0 is no effect, 100 is complete control) [26]
70: Plant response rating, Oat, Wild [6, 28] | Plant response rating, Pigweed, Palmer [7, 27] | Plant response rating, Ragweed [8, 28] | Plant response rating, Goosegrass [15, 29] | Plant response rating, Wheat [22, 29] | Plant response rating, Wheat ([22]; 125 g ai/ha, 0 to 100 scale) | Plant response rating, Galium ([23]; 125 g ai/ha, 0 to 100 scale)
20: Plant response rating, Soybean (soybean (Glycine max) [10]; [27]) | Plant response rating, Soybean (soybean (Glycine max) [21]; [29])
0: Plant response rating, Kochia (kochia (Bassia scoparia) [5]; [27]) | Plant response rating, Ragweed [8, 27] | Plant response rating, Blackgrass ([12]; 31 g ai/ha, 10 days) | Plant response rating, Oat, Wild [17, 29] | Plant response rating, Pigweed, Palmer [18, 29]
60: Plant response rating, Oat, Wild [6, 27] | Plant response rating, Ragweed ([19]; 125 g ai/ha, 0 to 100 scale)
90: Plant response rating, Corn (corn (Zea mays) [2]; [28]) | Plant response rating, Foxtail, Giant [3, 27] | Plant response rating, Goosegrass [4, 27] | Plant response rating, Goosegrass [4, 28] | Plant response rating, Ryegrass, Italian [9, 28] | Plant response rating, Foxtail, Giant ([14]; 125 g ai/ha, 0 to 100 scale) | Plant response rating, Goosegrass ([15]; 125 g ai/ha, 0 to 100 scale) | Plant response rating, Barnyardgrass (0 to 100 scale, 0 is no effect, 100 is complete control) [25]
100: Plant response rating, Foxtail, Giant [3, 28] | Plant response rating, Wheat [11, 28]
